pEC50: −log10 of the molar value. The source made the active and inactive calls. The rule behind the calls is not given here.

The assay has as its system Saccharomyces cerevisiae lifespan extension, no nicotinamide. The experiment in a line: yeast lifespan extension without nicotinamide, confirmation, yeast lifespan extension project, S. cerevisiae (AID 812).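 Note: growth read as optical density after 42 hours of incubation at 30C.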

With `CSC1=NSC2=NC(=O)/C(=C\c3cccs3)C(=N)N12`, the EC50 was > 40 µM (inactive).

As for `CCCCCC1CC1C(=O)N/N=C/c1ccc(N(C)C)cc1` (centres undefined), the EC50 was > 40 µM (inactive).

Regarding `COC(=O)C1=C(C(=O)OC)C(c2cc(Br)ccc2O)c2sc(=O)[nH]c2S1` (centres undefined), the EC50 is > 40 µM (inactive).

`O=c1cc(O)c2c(=O)n(-c3ccccc3)c3c(c2o1)CCCCC3`: the EC50 was > 40 µM (inactive).

Regarding `COc1ccc(/C=C(\C#N)C(=O)N2CCOCC2)cc1Br`, the EC50 was > 40 µM (inactive).

On to `CCn1c(=O)c2c(O)cc(=O)oc2c2ccccc21`, for which the EC50 was > 40 µM (inactive).

As for `C=C(C(=O)c1ccccc1)C(C)C(=C)C(=O)c1ccccc1`, the EC50 is > 40 µM (inactive).

Regarding `CC(C)(C)C(=O)/C(=C/c1cccc([N+](=O)[O-])c1)n1cncn1`, the EC50 was > 40 µM (inactive).

Consider `CCc1ccc2c(c1)CCCN2C(=O)c1ccccc1C(=O)O`, for which the EC50 is > 40 µM (inactive).

Consider `c1ccc(-c2c(-c3ccccc3)n(Cc3ccco3)c3ncnc(NCCCn4ccnc4)c23)cc1`, for which the EC50 was > 40 µM (inactive).

With `Cc1ccc(/C=C/C(=O)C2C(=O)c3ccccc3C2=O)cc1`, the EC50 is > 40 µM (inactive).

On to `Cc1ccc(Oc2nc3ccccc3n3c(C)nnc23)c(C)c1`, for which the EC50 was > 40 µM (inactive).

Regarding `CC(C)OCCCNS(=O)(=O)c1ccc2ccccc2c1`, the EC50 was > 40 µM (inactive).

As to `COc1cccc(CSc2nc3ccccc3cc2C=O)c1`, the EC50 was > 40 µM (inactive).

In the case of `CCN1CCCC1CNC(=O)COc1cc(=O)n(C)c2ccccc12` (centres undefined), the EC50 is > 40 µM (inactive).

In the case of `COc1ccc(C(CNC(=O)c2cccc(Br)c2)N2CCCC2)cc1` (centres undefined), the EC50 was > 40 µM (inactive).

As for `Cc1nn(C(C)(C)C)c(OC(=O)c2ccc(Br)o2)c1Sc1ccccc1`, the EC50 was > 40 µM (inactive).

Regarding `CC(=Nc1ccc2c(c1)nc(CO)n2C)C1=C(O)CC(C)(C)CC1=O`, the EC50 was > 40 µM (inactive).

In the case of `O=S(=O)(ON(c1ccccc1)S(=O)(=O)c1ccccc1)c1ccccc1`, the EC50 was > 40 µM (inactive).

On to `CCC1CCCCN1S(=O)(=O)c1ccc(S(=O)(=O)N(Cc2cccs2)C2CC2)cc1` (centres undefined), for which the EC50 was > 40 µM (inactive).

Take `COC(=O)C(=O)/C=C(\O)c1ccc(C)cc1`: the EC50 is > 40 µM (inactive).

As for `Cc1ccc2[nH]c3c(c2c1)CC/C(=C/c1ccccc1)C3=O`, the EC50 is > 40 µM (inactive).

For the compound `CCc1nc(SCC(=O)c2ccc3c(c2)OCCO3)c2ccccc2n1`, the negative logarithm of the EC50 (pEC50) was 4.72.

Take `COc1cc(OC)cc(-c2nc3ccccc3c(=O)n2OC(=O)c2ccc(Br)cc2)c1`: the EC50 was > 40 µM (inactive).

In the case of `CCCCCCCCn1c(=O)c(C(=O)OCC)c(O)c2ccccc21`, the EC50 is > 40 µM (inactive).

As to `O=C1c2ccccc2C(=O)N1OCc1ccccc1`, the EC50 is > 40 µM (inactive).

Consider `O=C(COc1ccc2ccccc2c1)Nc1cccc(C(=O)Nc2ccccc2C(=O)O)c1`, for which the EC50 was > 40 µM (inactive).

For the compound `COc1cccc(/C=C/C(=O)c2c(O)cc(C)oc2=O)c1O`, the EC50 is > 40 µM (inactive).

Regarding `CC(C)C(c1nnnn1Cc1ccccc1)N1CCN(Cc2ccc3c(c2)OCO3)CC1` (centres undefined), the EC50 is > 40 µM (inactive).

For the compound `Oc1ccc2ccccc2c1C=Nc1ccc(N2CCOCC2)cc1`, the EC50 was > 40 µM (inactive).

As to `CC(=O)Oc1c(C(=O)c2nnc(C)o2)c(=O)n(C)c2ccccc12`, the EC50 is > 40 µM (inactive).

For the compound `O=C(NCc1ccco1)c1cc(C(=O)C2CCCCC2)c[nH]1`, the EC50 was > 40 µM (inactive).

With `CC(=O)c1c(C)[nH]c(C(=O)OC2CCCCC2=O)c1C` (centres undefined), the EC50 is > 40 µM (inactive).

In the case of `O=C(NC(=S)NNC(=O)c1ccc(Cl)cc1Cl)c1cccnc1`, the EC50 was > 40 µM (inactive).

Take `CC(=C1C(=O)c2ccccc2C1=O)N1CCN(C/C=C/c2ccccc2)CC1`: the EC50 is > 40 µM (inactive).

As to `O=c1c(-c2ccc(Cl)cc2)[n+]([O-])c2ccccc2n1OCc1ccccn1`, the EC50 is > 40 µM (inactive).

For `O=S(=O)(Nc1nc2ccccc2nc1Cl)c1ccc2ccccc2c1`, the EC50 is > 40 µM (inactive).

For the compound `O=C1/C(=C/c2cccnc2)CCC/C1=C\c1cccnc1`, the EC50 was > 40 µM (inactive).

With `CCOC(=O)c1ccccc1N1C(=O)CSC1=S`, the EC50 is > 40 µM (inactive).

In the case of `O=C1OC2(CCCCC2)OC(=O)C1=CNc1nc2ccccc2s1`, the EC50 is > 40 µM (inactive).

Consider `O=C(CCl)N1c2ccccc2OCC1c1ccccc1` (centres undefined), for which the EC50 is > 40 µM (inactive).

Regarding `COc1cccc(C(=O)Oc2cc(N)n(S(=O)(=O)c3ccc(C)cc3)n2)c1OC`, the EC50 was > 40 µM (inactive).

For `C=C(CC)C(=O)c1ccc(OCC(=O)O)c(Cl)c1Cl`, the EC50 was > 40 µM (inactive).

As for `CC(C)Cc1nn2c(=O)cc(O)nc2s1`, the EC50 is > 40 µM (inactive).

Take `COc1ccc(CN2CCN(C(=O)COc3cccc(C)c3)CC2)c(OC)c1`: the EC50 was > 40 µM (inactive).

Consider `Cc1ccc(-c2nc3ccc(Cl)cc3n2OC(=O)N(C)C)cc1`, for which the EC50 was > 40 µM (inactive).

Take `CCOC(=O)CCCNC(=O)COc1ccccc1C#N`: the EC50 is > 40 µM (inactive).

As for `COc1ccc2c(=O)c3c(=O)n(Cc4ccco4)c(-c4ccc(C)cc4)nc3oc2c1`, the EC50 was > 40 µM (inactive).

Turning to `COc1ccc(NCc2nc3ccccc3n2CCOc2ccccc2)cc1`, the EC50 is > 40 µM (inactive).

Consider `O=C(N/N=C/c1ccc(F)cc1)c1c(O)c2ccccc2[nH]c1=O`, for which the EC50 was > 40 µM (inactive).

Take `CCCC(=O)C1C(=O)CC(CC(C)SCC)CC1=O` (centres undefined): the EC50 was > 40 µM (inactive).

With `O=Cc1cc2ccccc2nc1SCc1ccc(Cl)cc1`, the EC50 is > 40 µM (inactive).

For `N#Cc1c(-c2ccccc2)c(-c2ccccc2)nn(CC(=O)NNC(=O)Nc2ccccc2)c1=O`, the EC50 was > 40 µM (inactive).

For `O=C(/C(=C/c1ccccc1)n1cncn1)c1ccc(Cl)cc1Cl`, the EC50 was > 40 µM (inactive).

As to `COc1ccccc1C(=O)Oc1ccc2c(c1)O/C(=C\c1ccncc1)C2=O`, the EC50 was > 40 µM (inactive).

On to `CC1=NN(c2ccc(C(F)(F)F)cn2)C(=O)C1`, for which the EC50 was > 40 µM (inactive).

In the case of `Cc1ccc2nc(N3C(=O)C(O)=C(C(=O)c4ccco4)C3c3cccs3)sc2c1` (centres undefined), the EC50 is > 40 µM (inactive).

On to `CCOc1ccc(/C=C2/C(=O)NC(=O)N(CCc3ccc(F)cc3)C2=O)cc1`, for which the EC50 is > 40 µM (inactive).

Turning to `C=CCn1c(O)c(C(CC)=NCCN2CCOCC2)c(=O)[nH]c1=O`, the EC50 was > 40 µM (inactive).

As to `O=Cc1cccn1-c1sc2c(c1C(=O)O)CCCC2`, the EC50 is > 40 µM (inactive).

On to `CCOc1cc(/C=C\[N+](=O)[O-])ccc1OCC(=O)Nc1ccccc1C`, for which the EC50 was > 40 µM (inactive).

For the compound `COc1ccc(NC(=S)N2CCN(CCN=CC3=C(O)CC(c4ccccc4)CC3=O)CC2)cc1` (centres undefined), the EC50 was > 40 µM (inactive).

Consider `Nc1cccc2c1C(=O)N(C(=O)c1ccc(Cl)c(S(=O)(=O)N3CCCCCC3)c1)C2=O`, for which the EC50 is > 40 µM (inactive).

Take `O=C1CC(c2ccc(F)cc2)CC(O)=C1C=NCCN1CCN(C(=O)Nc2ccccc2)CC1` (centres undefined): the EC50 is > 40 µM (inactive).

Take `Cc1nc2ccccc2n1-c1ccccc1`: the EC50 is > 40 µM (inactive).

Turning to `CCOc1ccc(N=Cc2c(O)c3ccccc3oc2=O)cc1`, the EC50 was > 40 µM (inactive).

Take `O=C(NCCc1ccccn1)C(F)(F)C(F)(F)C(F)(F)C(F)(F)C(F)(F)C(F)(F)C(F)(F)C(F)F`: the EC50 is > 40 µM (inactive).

For the compound `Cc1ccc(/C(O)=C2\C(=O)C(=O)N(c3cc(C)on3)C2c2cccc(Cl)c2)cc1` (centres undefined), the EC50 is > 40 µM (inactive).

`O=C1CC(c2ccccc2)CC(O)=C1C=NCCN1CCOCC1` (centres undefined): the EC50 is > 40 µM (inactive).

As for `Cc1cc(C)c(S(=O)(=O)c2ccccc2)c(OC(=O)c2cc(F)c(F)cc2Cl)n1`, the EC50 was > 40 µM (inactive).

On to `O=C1CC(c2ccccc2)CC(O)=C1C=NCCN1CCN(C(=O)Cc2ccccc2)CC1` (centres undefined), for which the EC50 was > 40 µM (inactive).

For the compound `CCCC[n+]1c(-c2ccc(Cl)cc2Cl)csc1Nc1ccccc1`, the EC50 is > 40 µM (inactive).

Take `Fc1cccc2sc(Nc3nnc(-c4ccco4)o3)nc12`: the EC50 is > 40 µM (inactive).

As to `Cc1nc2c(=O)n(C)c(=O)n(C)c2nc1Cl`, the EC50 was > 40 µM (inactive).

Turning to `CCCc1[nH]nc2c1C(c1ccc(Br)s1)C(C#N)=C(N)O2` (centres undefined), the EC50 was > 40 µM (inactive).

As for `CCc1ccc(CC2S/C(=C(\C#N)C(C)=O)NC2=O)cc1` (centres undefined), the EC50 was > 40 µM (inactive).

Consider `CC(c1ccco1)N(C(=O)c1ccccc1NS(=O)(=O)c1cc([N+](=O)[O-])ccc1Cl)c1ccccn1` (centres undefined), for which the EC50 is > 40 µM (inactive).

Regarding `O=C(O)CCCCCN1C(=O)/C(=C\c2ccncc2)SC1=S`, the EC50 is > 40 µM (inactive).

With `COc1ccccc1CN(Cc1nc2ccccc2c(=O)[nH]1)C(=O)Nc1cccc(C)c1`, the EC50 is > 40 µM (inactive).

Turning to `Cc1ccc(C(=O)NNC(=S)NC(=O)c2ccc(Cl)cc2)cc1`, the EC50 was > 40 µM (inactive).

`C/C=C/Cn1c(N2CCCCCC2)nc2c1c(=O)[nH]c(=O)n2C`: the EC50 was > 40 µM (inactive).

Regarding `O=C(c1ccccc1)C(CN1CCCC1)c1ccccc1` (centres undefined), the EC50 was > 40 µM (inactive).

`COC(=O)c1cc(OC)c(OC)cc1NC(=S)Nc1cccc(C(C)=O)c1`: the EC50 was > 40 µM (inactive).

In the case of `Cn1nnnc1SCCNCC#Cc1ccccc1`, the EC50 is > 40 µM (inactive).

Consider `O=c1c(Cl)c(NCCCO)cnn1-c1nc2ccccc2[nH]1`, for which the EC50 is > 40 µM (inactive).

For `O=C(c1cnn2c(C(F)F)cc(C3CC3)nc12)N1CCCC1`, the EC50 was > 40 µM (inactive).

As to `C=CCn1c(C)cc(C(=O)COc2ncnc3sccc23)c1C`, the EC50 is > 40 µM (inactive).

In the case of `Cc1ccc(C)c(N2CCN(S(=O)(=O)c3c(C)noc3/C=C/N(C)C)CC2)c1`, the EC50 was > 40 µM (inactive).

With `C/C(=N\NC(=O)c1ccccc1O)c1c(O)cc(C)oc1=O`, the EC50 was > 40 µM (inactive).

As usually defined, the EC50 is the midpoint of the concentration-response curve. What is called pEC50 is the EC50 on a negative log10 scale, so that one unit is a factor of ten.

Source of the values: PubChem BioAssay AID812 (SRMLSC, 2007).
